Results as given in PMC9976899, “Identification of a novel 5-aminomethyl-2-thiouridine methyltransferase in tRNA modification” (Nucleic Acids Research, 2023).

Tests used:
osMnmM (osYtqB) = target: T1, osMnmM (osYtqB) (Oryza sativa, UniProt Q0DGU2); conditions: 0.1 mM SAM, 20 uM enzyme, bulk tRNA from B. subtilis delta-ytqB (nm5s2U), pH 7.5, 37 C
T1 construct: gene Os05g0511700

atMnmM (atYtqB) = target: T2, atMnmM (atYtqB) (Arabidopsis thaliana, UniProt Q8GUP2); experiment: in vitro tRNA methylation, nucleoside HPLC / LC-MS; assay type: biochemical; conditions: 0.1 mM SAM, 20 uM enzyme, bulk tRNA from B. subtilis delta-ytqB (nm5s2U), pH 7.5, 37 C
T2 construct: gene At1g16445; residues 53-274, chloroplast signal peptide removed, codon-optimized, His-tagged, expressed in E. coli BL21(DE3)
T2 sequence (Q8GUP2 53-274): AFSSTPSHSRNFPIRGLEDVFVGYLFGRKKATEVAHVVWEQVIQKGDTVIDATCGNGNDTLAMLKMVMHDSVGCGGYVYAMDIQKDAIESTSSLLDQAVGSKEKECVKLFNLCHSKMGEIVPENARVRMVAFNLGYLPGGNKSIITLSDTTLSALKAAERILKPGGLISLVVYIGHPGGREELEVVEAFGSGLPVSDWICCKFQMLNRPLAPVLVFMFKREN

T1 sequence (Q0DGU2 48-260): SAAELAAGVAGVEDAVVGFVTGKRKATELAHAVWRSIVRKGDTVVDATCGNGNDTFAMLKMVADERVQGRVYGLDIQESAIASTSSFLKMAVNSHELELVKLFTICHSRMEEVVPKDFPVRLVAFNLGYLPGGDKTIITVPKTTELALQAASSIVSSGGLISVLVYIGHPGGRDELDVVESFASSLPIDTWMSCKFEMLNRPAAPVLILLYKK

C[S+](CC[C@H](N)C(=O)O)C[C@H]1O[C@@H](n2cnc3c(N)ncnc32)[C@H](O)[C@@H]1O (some centres unmarked) [SAM]
in vitro tRNA methylation, nucleoside HPLC / LC-MS (osMnmM (osYtqB)): saMnmM, atMnmM, and osMnmM were capable of methylating the hypomodified tRNA substrates | in vitro tRNA methylation, nucleoside HPLC / LC-MS (atMnmM (atYtqB)): saMnmM, atMnmM, and osMnmM were capable of methylating the hypomodified tRNA substrates
